In patent US10351548B2, “2-oxo-1,2-dihydropyridine-3-carboxamide compounds and their use as inhibitors of PDK1” (INTERNATIONAL SOCIETY FOR DRUG DEVELOPMENT S.R.L., priority 2015, dated 2019):
Where two headings read alike, the source gives them in different places.

Target: PI4KB (PI4K beta) (Homo sapiens (Human), UniProt Q9UBF8)
Assay: IB35 kinases profiling at 100 nM (Adapta)
Format: biochemical
Conditions: IB35 100 nM, ATP Km app
Text: The results are reported below

Sequence of PI4KB (PI4K beta) (Q9UBF8 whole entry): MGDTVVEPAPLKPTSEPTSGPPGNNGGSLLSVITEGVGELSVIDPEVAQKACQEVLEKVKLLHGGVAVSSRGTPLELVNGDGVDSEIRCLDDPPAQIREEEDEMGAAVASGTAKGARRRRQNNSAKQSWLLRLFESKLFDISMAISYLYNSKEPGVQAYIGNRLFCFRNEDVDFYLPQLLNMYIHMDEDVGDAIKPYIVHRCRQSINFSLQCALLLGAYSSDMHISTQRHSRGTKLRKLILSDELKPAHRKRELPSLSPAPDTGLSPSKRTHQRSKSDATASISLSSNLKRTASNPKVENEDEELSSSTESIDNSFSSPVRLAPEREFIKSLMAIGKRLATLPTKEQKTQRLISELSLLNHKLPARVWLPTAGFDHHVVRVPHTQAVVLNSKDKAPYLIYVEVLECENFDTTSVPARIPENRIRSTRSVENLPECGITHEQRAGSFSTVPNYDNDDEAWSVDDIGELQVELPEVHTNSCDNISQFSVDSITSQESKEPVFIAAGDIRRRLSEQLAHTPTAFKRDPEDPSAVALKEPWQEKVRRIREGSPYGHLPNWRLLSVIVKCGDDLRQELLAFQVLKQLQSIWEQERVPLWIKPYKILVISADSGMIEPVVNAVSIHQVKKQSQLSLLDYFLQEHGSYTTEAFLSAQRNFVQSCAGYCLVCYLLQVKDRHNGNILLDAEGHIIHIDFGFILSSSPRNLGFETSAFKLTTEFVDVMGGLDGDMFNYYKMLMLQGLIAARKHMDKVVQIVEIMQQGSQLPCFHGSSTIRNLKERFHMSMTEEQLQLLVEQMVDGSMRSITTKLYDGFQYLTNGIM

**Q.** Which results are given for `O=C(CNC(=O)c1cccn(Cc2ccc(F)c(F)c2)c1=O)Nc1ccc2c(c1)/C(=C/c1cnc[nH]1)C(=O)N2` [IB35, (Z)—N-(2-((3-((1H-imidazol-5-yl)methylene)-2-oxoindolin-5-yl)amino)-2-oxoethyl)-1-(3,4-difluorobenzyl)-2-oxo-1,2-dihydro pyridine-3-carboxamide]?
**A.** inhibition at 0.1 µM (read-out: % Inhibition 1): -3%; inhibition at 0.1 µM (read-out: % Inhibition 2): 12%; inhibition at 0.1 µM (read-out: % Inhibition Avg): 4%
